Measured values: patent publication US20070197488A1, “Prodrugs of ERbeta-selective substances, process for their production, and pharmaceutical compositions that contain these compounds” (priority 2005, published 2007)

Legend:
[1] = target: Human Carbonic Anhydrase II (Homo sapiens, UniProt P00918); assay: Carbonic anhydrase inhibition (CO2 hydration, time to pH drop); assay type: biochemical; settings: read-out: CAII IC50
Method: (§1) b) Carbonic Anhydrase Inhibition—Test Principle and Test Description:
(§2) Carbonic anhydrases catalyze the CO2 hydration.
(§3) Test preparation: A constant CO2 stream is directed through a buffer that was mixed with carbonic anhydrase I or carbonic anhydrase II. The measuring parameter is the time that is required to drop the pH within defined limits. This parameter reflects the formation of H2CO3 in the medium. IC50-Inhibiting values are determined by test substances being pipetted into the test preparation.

[2] = target: Human Carbonic Anhydrase I (Homo sapiens, UniProt P00915); assay: as above; assay type: biochemical; settings: read-out: CAI IC50
Human Carbonic Anhydrase I, sequence (P00915 whole entry): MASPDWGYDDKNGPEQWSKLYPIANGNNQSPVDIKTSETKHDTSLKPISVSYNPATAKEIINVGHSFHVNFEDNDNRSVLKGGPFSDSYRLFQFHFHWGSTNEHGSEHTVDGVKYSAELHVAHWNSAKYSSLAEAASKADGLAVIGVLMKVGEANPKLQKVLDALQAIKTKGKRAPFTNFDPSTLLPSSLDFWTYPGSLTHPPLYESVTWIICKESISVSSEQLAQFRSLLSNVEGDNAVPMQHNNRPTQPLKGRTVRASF
Method: as §1, §2, §3

[3] = Plasma level of released mother estrogen after oral administration in ovariectomized rats; assay type: in vivo, Wistar rats; settings: 1x oral 1 mg/animal, compared with oral 8-vinyl-E2
Method: Adult Wistar rats were ovariectomized 14 days after this operation for the study of the substances according to the invention. A treatment extended over 3 days (days 1-3), and on day 4, the animals were sacrificed. Then, the recovery of plasma for hormone-analytical and clinical-chemical determinations and the determination of uterus weights were carried out. In satellite tests, correspondingly conditioned animals were sacrificed and samples were taken of their blood after one-time treatment and at other times (see FIGS. 1 and 2).

SMILES	IC50 [1] [nM]	IC50 [2] [nM]	Increase of the 8β-vinylestra-1,3,5(10)-triene-3,17β-diol level (8-vinyl-E2) in the plasma [3]
C=C[C@@]12CCc3cc(O)ccc3[C@H]1CC[C@]1(C)[C@@H](OC(=O)c3ccccc3)CC[C@H]12 [(3′-Hydroxy-8′beta-vinyl-estra-1′,3′,5′(10′)-trien-17′beta-yl)-benzoat]	> 10000	> 10000	–
C[C@]12CC[C@@H]3c4ccc(OS(N)(=O)=O)cc4CC[C@H]3[C@@H]1CC[C@@H]2O [Estradiol-3-sulfamate]	21.6 ± 1.5	157 ± 10.6	–
C=C[C@@]12CCc3cc(O)ccc3[C@H]1CC[C@]1(C)[C@@H](OC(=O)c3cccc(S(N)(=O)=O)c3)CC[C@H]12 [Example 1, (3′-Hydroxy-8′-vinylestra-1′,3′,5′(10′)-trien-17′β-yl)-3-sulfamoyl benzoate]	570	3900	Considerably greater increase
C=C[C@@]12CCc3cc(O)ccc3[C@H]1CC[C@]1(C)[C@@H](OC(=O)c3ccc(S(N)(=O)=O)cc3)CC[C@H]12 [Example 2, (3′-Hydroxy-8′-vinylestra-1′,3′,5′(10′)-trien-17′β-yl)-4-sulfamoyl benzoate]	–	–	greater increase
